Tests used:
JAK2 = JAK2 (Homo sapiens (Human), UniProt O60674); assay: Biochemical JAK kinase assay (LanthaScreen), JAK2; conditions: for Ki: read-out: JAK2 pKi (converted)
Method: (§1) A panel of four LanthaScreen JAK biochemical assays (JAK1, 2, 3 and Tyk2) were carried in a common kinase reaction buffer (50 mM HEPES, pH 7.5, 0.01% Brij-35, 10 mM MgCl2, and 1 mM EGTA). Recombinant GST-tagged JAK enzymes and a GFP-tagged STAT1 peptide substrate were obtained from Life Technologies.
(§2) Serially diluted compounds were pre-incubated with each of the four JAK enzymes and the substrate in white 384-well microplates (Corning) at ambient temperature for 1 h. ATP was subsequently added to initiate the kinase reactions in 10 μL total volume, with 1% DMSO. The final enzyme concentrations for JAK1, 2, 3 and Tyk2 are 4.2 nM, 0.1 nM, 1 nM, and 0.25 nM respectively; the corresponding Km ATP concentrations used are 25 μM, 3 μM, 1.6 μM, and 10 μM; while the substrate concentration is 200 nM for all four assays. Kinase reactions were allowed to proceed for 1 hour at ambient temperature before a 10 μL preparation of EDTA (10 mM final concentration) and Tb-anti-pSTAT1 (pTyr701) antibody (Life Technologies, 2 nM final concentration) in TR-FRET dilution buffer (Life Technologies) was added. The plates were allowed to incubate at ambient temperature for 1 h before being read on the EnVision reader (Perkin Elmer). Emission ratio signals (520 nm/495 nm) were recorded and utilized to calculate the percent inhibition values based on DMSO and background controls.
(§3) For dose-response analysis, percent inhibition data were plotted vs. compound concentrations, and IC50 values were determined from a 4-parameter robust fit model with the Prism software (GraphPad Software). Results were expressed as pIC50 (negative logarithm of IC50) and subsequently converted to pKi (negative logarithm of dissociation constant, Ki) using the Cheng-Prusoff equation.
(§4) Test compounds having a lower Ki value or higher pKi value in the four JAK assays show greater inhibition of JAK activity.

JAK1 = JAK1 (Homo sapiens (Human), UniProt P23458); assay: Biochemical JAK kinase assay (LanthaScreen), JAK1; conditions: for Ki: read-out: JAK1 pKi (converted)
Method: as §1, §2, §3, §4

[1] = tested on: IL-13 induced STAT6 phosphorylation in BEAS-2B human lung epithelial cells; assay: Cellular JAKI potency assay (BEAS-2B); format: cell-based; conditions: Homo sapiens, BEAS-2B, BEAS-2B cells, read-out: BEAS2B pIC50 (converted)
Method: The JAKI cellular potency assay was carried out by measuring inhibition of interleukin-13 (IL-13, R&D Systems) induced STAT6 phosphorylation in BEAS-2B human lung epithelial cells (ATCC). BEAS-2B cells were grown at 37° C. in a 5% CO2 humidified incubator in 50% DMEM/50% F-12 medium (Life Technologies) supplemented with 10% FBS (Hyclone), 100 U/mL penicillin, 100 μg/mL streptomycin (Life Technologies), and 2 mM GlutaMAX (Life Technologies). On day 1 of the assay, cells were seeded at a 7,500 cells/well density in white poly-D-lysine-coated 384-well plates (Corning) with 25 μL medium and were allowed to adhere overnight in the incubator. On day 2 of the assay, the medium was removed and replaced with 12 μL of assay buffer (Hank's Balanced Salt Solution/HBSS, 25 mM HEPES, and 1 mg/ml bovine serum albumin/BSA) containing dose-responses of test compounds. Compounds were serially diluted in DMSO and then diluted another 1000-fold in media to bring the final DMSO concentration to 0.1%. Cells were incubated with test compounds at 37° C. for 1 h and followed by the addition of 12 μl of pre-warmed IL-13 (80 ng/mL in assay buffer) for stimulation. After incubating at 37° C. for 30 min, the assay buffer (containing compound and IL-13) was removed, and 10 μL of cell lysis buffer (25 mM HEPES, 0.1% SDS, 1% NP-40, 5 mM MgCl2, 1.3 mM EDTA, 1 mM EGTA, supplemented with Complete Ultra mini protease inhibitors and PhosSTOP from Roche Diagnostics). The plates were shaken at ambient temperature for 30 min before the addition of detection reagents. Levels of pSTAT6 were measured using the AlphaLISA SureFire Ultra pSTAT6 (Tyr641) assay kit from PerkinElmer. For dose-response analysis, percent inhibition data were plotted vs. compound concentrations, and IC50 values were determined from a 4-parameter robust fit model with the Graphpad Prism software. Results are expressed as the negative logarithm of the IC50 value, pIC50.
Test compounds having a lower IC50 value or higher pIC50 value in this assay show greater inhibition of IL-13 induced STAT6 phosphorylation.

Sequence of JAK1 (P23458 whole entry): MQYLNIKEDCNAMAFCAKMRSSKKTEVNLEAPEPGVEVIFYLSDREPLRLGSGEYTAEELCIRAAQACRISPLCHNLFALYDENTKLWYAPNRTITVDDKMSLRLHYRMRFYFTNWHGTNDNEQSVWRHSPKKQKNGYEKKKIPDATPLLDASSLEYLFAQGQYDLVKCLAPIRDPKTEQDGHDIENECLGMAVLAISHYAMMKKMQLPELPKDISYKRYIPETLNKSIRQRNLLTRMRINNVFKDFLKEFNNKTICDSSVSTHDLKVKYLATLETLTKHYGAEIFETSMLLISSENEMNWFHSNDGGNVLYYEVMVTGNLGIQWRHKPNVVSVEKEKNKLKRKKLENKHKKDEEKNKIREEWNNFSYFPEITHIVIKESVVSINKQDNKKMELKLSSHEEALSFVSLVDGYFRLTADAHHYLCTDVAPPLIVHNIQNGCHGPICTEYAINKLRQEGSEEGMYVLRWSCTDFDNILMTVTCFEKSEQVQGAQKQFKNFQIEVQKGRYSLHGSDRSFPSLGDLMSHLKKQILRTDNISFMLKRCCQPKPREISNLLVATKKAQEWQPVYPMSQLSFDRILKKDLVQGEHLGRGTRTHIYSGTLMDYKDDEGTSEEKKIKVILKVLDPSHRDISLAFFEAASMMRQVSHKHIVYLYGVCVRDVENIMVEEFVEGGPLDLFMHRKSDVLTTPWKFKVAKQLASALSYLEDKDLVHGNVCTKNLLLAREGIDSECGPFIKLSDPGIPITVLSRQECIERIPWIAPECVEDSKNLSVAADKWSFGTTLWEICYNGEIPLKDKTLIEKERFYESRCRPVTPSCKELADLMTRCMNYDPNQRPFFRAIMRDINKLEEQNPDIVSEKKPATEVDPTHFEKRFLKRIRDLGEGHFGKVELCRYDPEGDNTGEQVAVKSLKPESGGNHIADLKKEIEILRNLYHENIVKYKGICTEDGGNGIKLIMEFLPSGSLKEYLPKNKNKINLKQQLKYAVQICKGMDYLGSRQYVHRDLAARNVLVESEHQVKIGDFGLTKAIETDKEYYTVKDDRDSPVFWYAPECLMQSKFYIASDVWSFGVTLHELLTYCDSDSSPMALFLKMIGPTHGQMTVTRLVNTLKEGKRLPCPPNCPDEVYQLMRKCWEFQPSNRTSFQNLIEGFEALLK
Sequence of JAK2 (O60674 whole entry): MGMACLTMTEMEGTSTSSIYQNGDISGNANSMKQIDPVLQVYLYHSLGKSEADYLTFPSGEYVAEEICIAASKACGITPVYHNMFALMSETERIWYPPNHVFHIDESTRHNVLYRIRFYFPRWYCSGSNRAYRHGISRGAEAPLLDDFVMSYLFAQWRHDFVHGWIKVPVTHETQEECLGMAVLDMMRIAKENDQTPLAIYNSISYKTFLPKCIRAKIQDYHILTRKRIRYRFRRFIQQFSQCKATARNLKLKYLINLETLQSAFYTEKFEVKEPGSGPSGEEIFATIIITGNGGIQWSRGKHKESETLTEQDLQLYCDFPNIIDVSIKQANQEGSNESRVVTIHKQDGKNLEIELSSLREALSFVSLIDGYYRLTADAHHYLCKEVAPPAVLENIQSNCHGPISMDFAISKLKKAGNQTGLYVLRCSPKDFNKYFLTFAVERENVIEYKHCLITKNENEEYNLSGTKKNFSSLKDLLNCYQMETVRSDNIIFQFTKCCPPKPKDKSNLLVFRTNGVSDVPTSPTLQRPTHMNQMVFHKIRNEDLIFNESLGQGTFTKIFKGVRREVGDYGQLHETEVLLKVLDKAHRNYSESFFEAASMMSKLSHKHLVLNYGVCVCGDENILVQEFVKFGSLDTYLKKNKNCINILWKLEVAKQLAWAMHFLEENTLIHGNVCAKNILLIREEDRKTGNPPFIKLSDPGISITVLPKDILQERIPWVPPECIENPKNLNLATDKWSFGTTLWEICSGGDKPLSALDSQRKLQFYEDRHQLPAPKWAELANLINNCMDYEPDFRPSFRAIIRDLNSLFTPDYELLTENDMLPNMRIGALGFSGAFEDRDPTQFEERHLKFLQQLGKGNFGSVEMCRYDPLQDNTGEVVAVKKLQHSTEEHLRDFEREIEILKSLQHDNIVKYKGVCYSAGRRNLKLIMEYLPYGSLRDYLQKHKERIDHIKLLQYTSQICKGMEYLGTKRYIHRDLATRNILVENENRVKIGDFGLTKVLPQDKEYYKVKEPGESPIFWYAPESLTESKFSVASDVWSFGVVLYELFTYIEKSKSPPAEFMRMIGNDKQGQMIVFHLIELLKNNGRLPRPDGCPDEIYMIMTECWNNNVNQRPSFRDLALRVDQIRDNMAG

Compound | Ki (JAK2) | Ki (JAK1) | IC50 [1] | JAK2 pKi (JAK2) | JAK1 pKi (JAK1)
CCc1cc(O)ccc1-c1ccc2c(-c3nc(C4=CCCNC4C)c[nH]3)n[nH]c2c1 (stereo not drawn) [Example 233] | 0.1 to 1 nM | 0.1 to 1 nM | 10 to 31.6 nM | – | –
CCc1cc(O)ccc1-c1ccc2c(-c3nc(C4=CCN(C5CCC(O)CC5)CC4)c[nH]3)n[nH]c2c1F (stereo not drawn) [Example 121] | – | 0.1 to 1 nM | 10 to 31.6 nM | A (A represents a pKi value ≥10 (Ki≤0.1 nM)) | –
CCc1cc(O)ccc1-c1ccc2c(-c3nc(C4=CCN(C(C)C5CC(O)C5)CC4)c[nH]3)n[nH]c2c1F (stereo not drawn) [Example 58] | – | – | 3.16 to 10 nM | A (A represents a pKi value ≥10 (Ki≤0.1 nM)) | A (A represents a pKi value ≥10 (Ki≤0.1 nM))
CCc1cc(O)ccc1-c1ccc2c(-c3nc(C4=CCN(C(C)=O)C4)c[nH]3)n[nH]c2c1 [Example 166] | – | – | 3.16 to 10 nM | A (A represents a pKi value ≥10 (Ki≤0.1 nM)) | A (A represents a pKi value ≥10 (Ki≤0.1 nM))
CCc1cc(O)ccc1-c1ccc2c(-c3nc(C4=CCN(CC(=O)NC)CC4)c[nH]3)n[nH]c2c1F [Compound 12, 2-(4-(2-(6-(2-ethyl-4-hydroxyphenyl)-7-fluoro-1H-indazol-3-yl)-1H-imidazol-4-yl)-3,6-dihydropyridin-1(2H)-yl)-N-methylacetamide] | 0.1 to 1 nM | 0.1 to 1 nM | 10 to 31.6 nM | – | –
CCc1cc(O)ccc1-c1ccc2c(-c3nc(C4=CCN([C@H]5CC[C@](O)(C(F)(F)F)CC5)C4)c[nH]3)n[nH]c2c1F [Example 391] | 0.1 to 1 nM | 0.1 to 1 nM | 100 to 316 nM | – | –
CCc1cc(O)ccc1-c1ccc2c(-c3nc(C4=CCCN(CCCOC)C4)c[nH]3)n[nH]c2c1F [Example 67] | 0.1 to 1 nM | 0.1 to 1 nM | 10 to 31.6 nM | – | –
CCc1cc(O)ccc1-c1ccc2c(-c3nc(C4=CCCN(CCSC)C4)c[nH]3)n[nH]c2c1 [Example 86] | 0.1 to 1 nM | 0.1 to 1 nM | 10 to 31.6 nM | – | –
CCc1cc(O)ccc1-c1ccc2c(-c3nc(C4=CC(C(C)C)NC4)c[nH]3)n[nH]c2c1F (stereo not drawn) [Example 388] | 1 to 10 nM | 1 to 10 nM | 31.6 to 100 nM | – | –
CCc1cc(O)ccc1-c1ccc2c(-c3nc(C4=CCN(CCC(=O)NC)C4)c[nH]3)n[nH]c2c1 [Example 95] | – | – | 10 to 31.6 nM | A (A represents a pKi value ≥10 (Ki≤0.1 nM)) | A (A represents a pKi value ≥10 (Ki≤0.1 nM))
CCc1cc(O)ccc1-c1ccc2c(-c3nc(C4=CCN(Cc5ccccc5)CC4)c[nH]3)n[nH]c2c1 [Example 130] | 1 to 10 nM | 0.1 to 1 nM | 31.6 to 100 nM | – | –
CCc1cc(O)ccc1-c1ccc2c(-c3nc(C4=CC[C@H](C)N(CCN5CCCC5=O)C4)c[nH]3)n[nH]c2c1F [Example 271] | 0.1 to 1 nM | 0.1 to 1 nM | 10 to 31.6 nM | – | –
CCc1cc(O)ccc1-c1ccc2c(-c3nc(C4=CCN(CCS(=O)(=O)NC)C4)c[nH]3)n[nH]c2c1F [Example 393] | 0.1 to 1 nM | 0.1 to 1 nM | 100 to 316 nM | – | –
CCc1cc(O)ccc1-c1ccc2c(-c3nc(C4=CCN(C(=O)NC)C4)c[nH]3)n[nH]c2c1 [Example 169] | – | 0.1 to 1 nM | 31.6 to 100 nM | A (A represents a pKi value ≥10 (Ki≤0.1 nM)) | –
Oc1ccc(-c2ccc3c(-c4nc(C5=CCNCC5)c[nH]4)n[nH]c3c2)c(CC(F)(F)F)c1 [Example 369] | 0.1 to 1 nM | 0.1 to 1 nM | 31.6 to 100 nM | – | –
CCc1cc(O)ccc1-c1ccc2c(-c3nc(C4=CCN(C5CC(O)C5)C4)c[nH]3)n[nH]c2c1 (stereo not drawn) [Example 52] | – | – | 3.16 to 10 nM | A (A represents a pKi value ≥10 (Ki≤0.1 nM)) | A (A represents a pKi value ≥10 (Ki≤0.1 nM))
CCc1cc(O)ccc1-c1ccc2c(-c3nc(C4=CCCN(C[C@@H](C)CO)C4)c[nH]3)n[nH]c2c1F [Example 49] | 0.1 to 1 nM | 0.1 to 1 nM | 10 to 31.6 nM | – | –
CCc1cc(O)ccc1-c1ccc2c(-c3nc(C4=CCN(CCCOC)CC4)c[nH]3)n[nH]c2c1F [Example 59] | 0.1 to 1 nM | 0.1 to 1 nM | 10 to 31.6 nM | – | –
CCOC(=O)C1=C(c2c[nH]c(-c3n[nH]c4cc(-c5ccc(O)cc5CC)ccc34)n2)CNCC1 [Example 302] | 0.1 to 1 nM | – | 10 to 31.6 nM | – | A (A represents a pKi value ≥10 (Ki≤0.1 nM))
CCc1cc(O)ccc1-c1ccc2c(-c3nc(C4=CC[C@H](C)N(CCCO)C4)c[nH]3)n[nH]c2c1F [Example 258] | 0.1 to 1 nM | 0.1 to 1 nM | 10 to 31.6 nM | – | –
CCc1cc(O)ccc1-c1ccc2c(-c3nc(C4=CCCN(C(C)=O)C4)c[nH]3)n[nH]c2c1 [Example 159] | 0.1 to 1 nM | 0.1 to 1 nM | 10 to 31.6 nM | – | –
CCc1cc(O)ccc1-c1ccc2c(-c3nc(C4=CCN(CC5CCCOC5)CC4)c[nH]3)n[nH]c2c1F (stereo not drawn) [Example 63] | 0.1 to 1 nM | 0.1 to 1 nM | 10 to 31.6 nM | – | –
CCc1cc(O)ccc1-c1ccc2c(-c3nc(C4=C[C@@H](CC#N)NC4)c[nH]3)n[nH]c2c1 [Example 248] | 0.1 to 1 nM | 0.1 to 1 nM | 10 to 31.6 nM | – | –
CCc1cc(O)ccc1-c1ccc2c(-c3nc(C4=C[C@@H](C)N[C@@H](C)C4)c[nH]3)n[nH]c2c1 (racemic) [Example 366] | 0.1 to 1 nM | 0.1 to 1 nM | 31.6 to 100 nM | – | –
CCc1cc(O)ccc1-c1ccc2c(-c3nc(C4=CCN(CCN5CCNC5=O)CC4)c[nH]3)n[nH]c2c1F [Example 120] | 0.1 to 1 nM | 0.1 to 1 nM | 10 to 31.6 nM | – | –
CCc1cc(O)ccc1-c1ccc2c(-c3nc(C4=C[C@H](CCO)NC4)c[nH]3)n[nH]c2c1F [Example 314] | 0.1 to 1 nM | 0.1 to 1 nM | 10 to 31.6 nM | – | –
CCc1cc(O)ccc1-c1ccc2c(-c3nc(C4=CCN(CCNC(C)=O)CC4)c[nH]3)n[nH]c2c1F [Example 107] | – | – | 10 to 31.6 nM | A (A represents a pKi value ≥10 (Ki≤0.1 nM)) | A (A represents a pKi value ≥10 (Ki≤0.1 nM))
CCc1cc(O)ccc1-c1ccc2c(-c3nc(C4=CC[C@H](C)N([C@H]5C[C@@H](O)C5)C4)c[nH]3)n[nH]c2c1F [Example 265] | 0.1 to 1 nM | 0.1 to 1 nM | 3.16 to 10 nM | – | –

— patent publication US20240092758A1, “IMIDAZOLO INDAZOLE COMPOUNDS AS JAK INHIBITORS” (Theravance Biopharma R&D IP, LLC, priority 2021, published 2024)
